Reference: EP0906100B1, “USE OF 5-HT 1A? RECEPTOR ANTAGONISTS FOR THE TREATMENT OF URINARY INCONTINENCE” (RECORDATI S.A., priority 1996, dated 1997)

Key:
5-HT1A receptor = biological target: T1, 5-HT1A receptor (Rattus norvegicus, UniProt P19327); assay: [3H]8-OH-DPAT binding (5HT1A receptors), rat hippocampi; settings: 1 nM [3H]8-OH-DPAT, read-out: Binding affinity for the 5-HT1A receptor, Ki
T1 construct: Rat hippocampi were homogenized in 50 volumes of ice-cold 50 mM Tris-HCl pH 7.4; from tissue; host or cells: rat hippocampus membranes
T1 sequence (P19327 1-422): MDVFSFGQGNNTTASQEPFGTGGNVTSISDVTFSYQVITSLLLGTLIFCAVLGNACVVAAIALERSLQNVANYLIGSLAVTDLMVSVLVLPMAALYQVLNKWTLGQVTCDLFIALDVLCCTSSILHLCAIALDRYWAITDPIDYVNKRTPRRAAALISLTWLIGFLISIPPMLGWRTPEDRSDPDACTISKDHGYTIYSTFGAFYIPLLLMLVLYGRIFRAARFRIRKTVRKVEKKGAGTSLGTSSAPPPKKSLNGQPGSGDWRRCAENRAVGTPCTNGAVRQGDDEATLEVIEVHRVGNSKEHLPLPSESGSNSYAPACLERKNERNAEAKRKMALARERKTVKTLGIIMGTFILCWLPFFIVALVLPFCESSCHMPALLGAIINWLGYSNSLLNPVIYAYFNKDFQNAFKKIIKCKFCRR
Method: [^3H]8-OH-DPAT binding (5HT1A receptors):
Rat hippocampi were homogenized in 50 volumes of ice-cold 50 mM Tris-HCl pH 7.4. The homogenates were centrifuged at 48,000 x g for 10 minutes, and the pellets were resuspended in the same volume of ice-cold buffer, incubated for 10 minutes at 37°C, centrifuged and resuspended two more times. The final pellets obtained were resuspended in 100 volumes of 50 mM Tris-HCl, pH 7.4, containing 0.1 % ascorbic acid and 10 µM pargyline. 1 ml samples were incubated for 30 min at 25°C with 1 nM [^3H]8-OH-DPAT, in absence or presence of different concentrations (10^-5 to 10^-10 M) of the test compound. Non-specific binding was determined in the presence of 10 µM 5-HT. The incubations were terminated by rapid filtration through Whatman GF/B filters using a Brandel cell harvester, after which the filters were washed with 3 x 3 ml of ice-cold buffer. The radioactivity retained on the filters was determined by liquid scintillation counting.

[1] = system: pre-synaptic 5-HT1A receptor; assay: Antagonism of hypothermia induced by 8-OH-DPAT in mice; assay type: in vivo; settings: s.c., hypothermia induced by 0.5 mg/kg s.c. 8-OH-DPAT
Method: Antagonism of hypothermia induced by 8-OH-DPAT in mice:
The antagonistic effect of 5-HT1A receptor antagonists on hypothermia induced by 8-OH-DPAT was evaluated by the method of Moser (Moser, Eur. J. Pharmacol., 193, 165, 1991) with minor modifications.
Male CD-1 mice (28-38 g) obtained from Charles River (Italy) were housed in a climate-controlled room (temperature 22 ± 2°C; humidity 55 ± 15%) and maintained on a 12 h light/dark cycle with free access to food and water. On the day of experiment, mice were placed singly in clear plastic boxes under the same ambient conditions. Body temperature was measured by the insertion of a temperature probe (Termist TM-S, LSI) into the rectum to a depth of 2 cm. Rectal temperature was measured immediately prior to subcutaneous injection of the test compound and 30 min later. All animals then received 8-OH-DPAT (0.5 mg/kg s.c.) and their temperature was measured 30 min later. For each animal, temperature changes were calculated with respect to pretreatment values and the mean values were calculated for each treatment group.

[2] = system: rhythmic bladder voiding contractions; assay: Volume-induced rhythmic bladder voiding contractions in anaesthetized rats; assay type: in vivo; settings: for AMPLITUDE mm Hg before treatment / FREQUENCY No. contr./15 min before treatment: baseline; for AMPLITUDE mm Hg before treatment / AMPLITUDE mm Hg after treatment: animals with frequency reduction <50%; for AMPLITUDE mm Hg before treatment / FREQUENCY No. contr./15 min before treatment / AMPLITUDE mm Hg after treatment / FREQUENCY No. contr./15 min after treatment: mean±S.E.; for BLADDER CONTRACTIONS Disappearance time: duration of bladder quiescence, mean (S.E. in next cell); for ED (10 min disappearance of contractions) / ED50: Rattus norvegicus, iv; for ED (10 min disappearance of contractions): extrapolated dose inducing 10 min of disappearance of the contractions, linear regression; for ED50: read-out: ED50 FREQUENCY (and 95% confidence limits), quantal criterion (change ≥30% relative to basal value)
Method: Female Sprague Dawley rats weighing 225-275 g (Crl: CD° BR, Charles River Italia) were used. The animals were housed with free access to food and water and were maintained on a forced 12 h alternating light-dark cycle at 22-24°C for at least one week, except during the experiment. The activity on the rhythmic bladder voiding contractions was evaluated according to the method of Dray (J. Pharmcol. Methods, 13:157, 1985), with some modifications as in Guarneri (Phannacol. Res., 27:173, 1993). […] The catheter was tied in place with a ligature around the external urethral orifice and was connected with conventional pressure transducers (Statham P23 ID/P23 XL). […] The bladder was then filled via the recording catheter by incremental volumes of warm (37°C) saline until reflex bladder voiding contractions occurred (usually 0.8-1.5 ml). Two parameters were recorded from the cystometrogram: the frequency of voiding contractions, calculated by counting the number of peaks/15 min of observation, and the mean amplitude of these contractions (mean height of the peaks in mmHg) in the same time period. For intravenous (i. v. ) injection of bioactive compounds, a PE 50 polyethylene tubing filled with physiological saline was inserted into the jugular vein.
Bioactivity was assessed in individual animals (using 6-10 rats per dose), by recording the number and height of the peaks for 15 min after drug injection and comparing them with those previously recorded for 15 min after the intravenous administration of vehicle alone. […] The statistical significance of changes in frequency and amplitude before and after treatment was assessed by Student's t test for paired data. Changes showing a probability P<0.01 were considered significant.
An all-or-none criterion was also used to compare bioactivity in terms of ED50 values. Rats showing a treatment-related change of ≥30% relative to the basal value were considered to be positive. Quantal dose-response curves and ED50 values were evaluated by the method of Bliss (J. Pharm. Pharmacol., 11:192, 1938).
The rapid distension of the urinary bladder in urethane-anaesthetized rats produced a series of rhythmic bladder voiding contractions whose characteristics have been described (Maggie et al., Brain Res., 380, 83, 1986; Maggi, et al., J. Pharmacol. Exp. Ther., 230, 500, 1984). The frequency of these contractions is related to the sensory afferent arm of reflex micturition and to the integrity of the micturition centre, while their amplitude is a property of the efferent arm of the reflex (Maggi et al., J. Pharmacol. Meth., 15, 157, 1986; Maggi et al., Brain Res.. 415, 1, 1987; Maggi et al., Naun. Schmied. Arch. Pharmacol., 332, 276, 1986; Maggi et al., J. Urol., 136, 696, 1986).

[3] = i.v., inhibition of frequency of rhythmic bladder voidings (ED50)

O=C(C1CCCCC1)N(CCN1CCN(c2cccc3[nH]ccc23)CC1)c1ccccn1 [Compound B, N-{2-[4-(4-Indolyl)-1-piperazinyl]-ethyl}-N-(2-pyridyl)-cyclohexanecarboxamide]
Ki (5-HT1A receptor): 0.13 nM
ID50 (95%) C.L., antagonistic activity for the pre-synaptic 5-HT1A receptor [1]: 1.9 (1.0-3.7) µg/kg s.c.
AMPLITUDE mm Hg before treatment ([2]; 0.3 µg/kg i.v. group): 31.0±3.7 mm Hg
FREQUENCY No. contr./15 min before treatment ([2]; 0.3 µg/kg i.v. group): 10.7±1.4 No. contr./15 min
AMPLITUDE mm Hg after treatment ([2]; 0.3 µg/kg i.v.): 27.7±4.1 mm Hg
BLADDER CONTRACTIONS Disappearance time ([2]; 0.3 µg/kg i.v.): 1.10 min
FREQUENCY No. contr./15 min after treatment ([2]; 0.3 µg/kg i.v.): 11.3±1.7 No. contr./15 min
AMPLITUDE mm Hg before treatment ([2]; 1 µg/kg i.v. group): 26.5±4.3 mm Hg
FREQUENCY No. contr./15 min before treatment ([2]; 1 µg/kg i.v. group): 11.7±1.5 No. contr./15 min
AMPLITUDE mm Hg after treatment ([2]; 1 µg/kg i.v.): 22.7±5.1 mm Hg
BLADDER CONTRACTIONS Disappearance time ([2]; 1 µg/kg i.v.): 4.33 min
FREQUENCY No. contr./15 min after treatment ([2]; 1 µg/kg i.v.): 8.7±1.3 No. contr./15 min
AMPLITUDE mm Hg before treatment ([2]; 3 µg/kg i.v. group): 33.7±2.4 mm Hg
FREQUENCY No. contr./15 min before treatment ([2]; 3 µg/kg i.v. group): 9.7±0.8 No. contr./15 min
AMPLITUDE mm Hg after treatment ([2]; 3 µg/kg i.v.): 25.3±1.2 mm Hg
BLADDER CONTRACTIONS Disappearance time ([2]; 3 µg/kg i.v.): 7.58 min
FREQUENCY No. contr./15 min after treatment ([2]; 3 µg/kg i.v.): 4.7±1.1 No. contr./15 min
AMPLITUDE mm Hg before treatment ([2]; 10 µg/kg i.v. group): 19.0 mm Hg
FREQUENCY No. contr./15 min before treatment ([2]; 10 µg/kg i.v. group): 11.7±1.7 No. contr./15 min
AMPLITUDE mm Hg after treatment ([2]; 10 µg/kg i.v.): 17.0 mm Hg
BLADDER CONTRACTIONS Disappearance time ([2]; 10 µg/kg i.v.): 10.00 min
FREQUENCY No. contr./15 min after treatment ([2]; 10 µg/kg i.v.): 4.2±0.9 No. contr./15 min
FREQUENCY No. contr./15 min before treatment ([2]; 30 µg/kg i.v. group): 12.0±1.1 No. contr./15 min
BLADDER CONTRACTIONS Disappearance time ([2]; 30 µg/kg i.v.): 8.85 min
FREQUENCY No. contr./15 min after treatment ([2]; 30 µg/kg i.v.): 4.5±1.4 No. contr./15 min
ED (10 min disappearance of contractions) [2]: 9 µg/kg
ED50 ([2]; i.v.): 1 µg/kg
fold more active than NAN-190 [2, 3]: 46 fold
fold more active than flavoxate [2, 3]: 2650 fold

COc1ccccc1N1CCN(CCCCN2C(=O)c3ccccc3C2=O)CC1 [NAN-190, 1-(2-methoxyphenyl)-4-[4-(2-phthalimido)-butyl]-piperazine]
Ki (5-HT1A receptor): 1.9 nM
ID50 (95%) C.L., antagonistic activity for the pre-synaptic 5-HT1A receptor [1]: not active
AMPLITUDE mm Hg before treatment ([2]; 30 µg/kg i.v. group): 30.2±3.7 mm Hg
FREQUENCY No. contr./15 min before treatment ([2]; 30 µg/kg i.v. group): 13.5±1.2 No. contr./15 min
AMPLITUDE mm Hg after treatment ([2]; 30 µg/kg i.v.): 26.1±3.1 mm Hg
BLADDER CONTRACTIONS Disappearance time ([2]; 30 µg/kg i.v.): 1.80 min
FREQUENCY No. contr./15 min after treatment ([2]; 30 µg/kg i.v.): 11.8±1.5 No. contr./15 min
AMPLITUDE mm Hg before treatment ([2]; 100 µg/kg i.v. group): 22.5±1.7 mm Hg
FREQUENCY No. contr./15 min before treatment ([2]; 100 µg/kg i.v. group): 13.6±1.0 No. contr./15 min
AMPLITUDE mm Hg after treatment ([2]; 100 µg/kg i.v.): 17.3±2.9 mm Hg
BLADDER CONTRACTIONS Disappearance time ([2]; 100 µg/kg i.v.): 6.34 min
FREQUENCY No. contr./15 min after treatment ([2]; 100 µg/kg i.v.): 6.4±1.1 No. contr./15 min
AMPLITUDE mm Hg before treatment ([2]; 300 µg/kg i.v. group): 24.1±1.8 mm Hg
FREQUENCY No. contr./15 min before treatment ([2]; 300 µg/kg i.v. group): 11.8±1.1 No. contr./15 min
AMPLITUDE mm Hg after treatment ([2]; 300 µg/kg i.v.): 17.6±1.7 mm Hg
BLADDER CONTRACTIONS Disappearance time ([2]; 300 µg/kg i.v.): 5.47 min
FREQUENCY No. contr./15 min after treatment ([2]; 300 µg/kg i.v.): 6.6±1.1 No. contr./15 min
ED (10 min disappearance of contractions) [2]: > 300 µg/kg
ED50 ([2]; i.v.): 46 µg/kg
